Values after ≈ are worked out from the molar mass of the structure shown. Active and inactive are the calls of the source. The rule behind the calls is not given here.
How the values were obtained:
Staphylococcus aureus [1] = experiment: Antibacterial activity against methicillin-resistant Staphylococcus aureus after 18 hr by NCCLS dilution tube method; assay type: functional
Staphylococcus aureus [2] = experiment: Antibacterial activity against methicillin-susceptible Staphylococcus aureus ATCC 1112 after 18 hr by NCCLS dilution tube method; assay type: functional; conditions: for MIC: ATCC 1112, 18 h
Streptococcus pyogenes = experiment: Antibacterial activity against Streptococcus pyogenes after 18 hr by NCCLS dilution tube method; assay type: functional
Streptococcus pneumoniae = experiment: Antibacterial activity against Streptococcus pneumoniae after 18 hr by NCCLS dilution tube method; assay type: functional
Klebsiella pneumoniae [3] = experiment: Antibacterial activity against Klebsiella pneumoniae after 18 hr by NCCLS dilution tube method; assay type: functional
Pseudomonas aeruginosa [4] = experiment: Antibacterial activity against Pseudomonas aeruginosa after 18 hr by NCCLS dilution tube method; assay type: functional
Pseudomonas aeruginosa [5] = experiment: Antibacterial activity against Pseudomonas aeruginosa at > 1000 uM after 18 hr by NCCLS dilution tube method; assay type: functional, organism-based
Klebsiella pneumoniae [6] = experiment: Antibacterial activity against Klebsiella pneumoniae at > 1000 uM after 18 hr by NCCLS dilution tube method; assay type: functional, organism-based

Row | SMILES | MIC (Staphylococcus aureus [1]) [µM] | MIC (Staphylococcus aureus [2]) [µM] | further results
1 | N#Cc1cnn(-c2ccc([N+](=O)[O-])cc2[N+](=O)[O-])c1NC(=O)c1ccc(F)cc1 | 252 (≈ 100 µg/mL) | 126 (≈ 50.1 µg/mL) | –
2 | N#Cc1cnn(-c2ccc([N+](=O)[O-])cc2[N+](=O)[O-])c1N | – | – | Activity (Streptococcus pyogenes): inactive; Activity (Streptococcus pneumoniae): inactive; Activity (Staphylococcus aureus [2]): inactive
3 | N#Cc1cnn(-c2ccc([N+](=O)[O-])cc2[N+](=O)[O-])c1NC(=O)c1ccc(Br)cc1 | 27.4 (≈ 12.5 µg/mL) | 27.4 (≈ 12.5 µg/mL) | –
4 | N#Cc1cnn(-c2ccc([N+](=O)[O-])cc2[N+](=O)[O-])c1NC(=O)C12CC3CC(CC(C3)C1)C2 | 57.4 (≈ 25.1 µg/mL) | 57.4 (≈ 25.1 µg/mL) | MIC (Klebsiella pneumoniae [3]): > 300 µM; MIC (Pseudomonas aeruginosa [4]): > 300 µM
5 | Cc1ccc(C(=O)Nc2c(C#N)cnn2-c2ccc([N+](=O)[O-])cc2[N+](=O)[O-])cc1 | 63.8 (≈ 25 µg/mL) | 60.5 (≈ 23.7 µg/mL) | –
6 | Cc1onc(-c2ccccc2Cl)c1C(=O)N[C@@H]1C(=O)N2[C@@H]1SC(C)(C)[C@@H]2C(=O)O [CLOXACILLIN] | 94 (≈ 41 µg/mL) | 13.7 (≈ 5.97 µg/mL) | –
7 | CC1=C(C(=O)O)N2C(=O)[C@@H](NC(=O)[C@H](N)c3ccccc3)[C@H]2SC1 [CEPHALEXIN ANHYDROUS] | 72 (≈ 25 µg/mL) | 4.6 (≈ 1.6 µg/mL) | –
8 | CC(=O)Nc1c(C#N)cnn1-c1ccc([N+](=O)[O-])cc1[N+](=O)[O-] | 632 (≈ 200 µg/mL) | 316 (≈ 99.9 µg/mL) | Activity (Pseudomonas aeruginosa [5]): inactive; MIC (Streptococcus pyogenes): 100 µg/mL (≈ 316 µM); MIC (Streptococcus pneumoniae): 100 µg/mL (≈ 316 µM); Activity (Klebsiella pneumoniae [6]): inactive
9 | CN(C)c1ccc(C(=O)Nc2c(C#N)cnn2-c2ccc([N+](=O)[O-])cc2[N+](=O)[O-])cc1 | 3.8 (≈ 1.6 µg/mL) | 3.8 (≈ 1.6 µg/mL) | –
10 | N#Cc1cnn(-c2ccc([N+](=O)[O-])cc2[N+](=O)[O-])c1NC(=O)c1ccccc1 | 264 (≈ 100 µg/mL) | 132 (≈ 50 µg/mL) | Activity (Pseudomonas aeruginosa [5]): inactive; Activity (Klebsiella pneumoniae [6]): inactive
11 | N#Cc1cnn(-c2ccc([N+](=O)[O-])cc2[N+](=O)[O-])c1NC(=O)c1ccc(Cl)cc1 | 60.5 (≈ 25 µg/mL) | 15.3 (≈ 6.32 µg/mL) | –
12 | COc1ccc(C(=O)Nc2c(C#N)cnn2-c2ccc([N+](=O)[O-])cc2[N+](=O)[O-])cc1 | 15.3 (≈ 6.25 µg/mL) | 31.9 (≈ 13 µg/mL) | –
13 | N#Cc1cnn(-c2ccc([N+](=O)[O-])cc2[N+](=O)[O-])c1NC(=O)C1CCCCC1 | 391 (≈ 150 µg/mL) | 195 (≈ 75.1 µg/mL) | Activity (Pseudomonas aeruginosa [5]): inactive; Activity (Klebsiella pneumoniae [6]): inactive

Reference: ChEMBL document CHEMBL3046829, “Design, synthesis, and structureactivity relationship study of 5-amido-1-(2,4-dinitrophenyl)-1H-4-pyrazolecarbonitrils as DD-carboxypeptidase/penicillin-binding protein inhibitors with Gram-positive antibacterial activity” (2010)
